Measured values published in US8445636B2, “Antimicrobial and anticancer lipopeptides” (Yeda Research & Development Co. Ltd., priority 2003, dated 2013).
In brackets after ≈: the same amount, converted by molar mass. Read-outs that look alike come from different tables or passages of the source. Non-standard residues stand in square brackets, D forms with d. Residues, ends and D or L forms follow the SMILES beside them. *: point of attachment. Palmitoyl = CCCCCCCCCCCCCCCC(=O)*; Myristoyl = CCCCCCCCCCCCCC(=O)*

How the values were obtained:
Type in all cases: cell-based
[1] = tested on: Staphylococcus aureus ATCC 6538P
Method: (§1) The antibacterial activity of the lipopeptides was examined in sterile 96-well plates (Nunc F96 microtiter plates) in a final volume of 100 μl as follows: Aliquots (50 μl) of a suspension containing bacteria at concentration of 1×10^6 Colony-Forming Units (CFU)/ml in culture LB (Lauria broth) medium (pH 7.4 or pH 5.5) were added to 50 μl of water containing the lipopeptide in serial 2-fold dilutions in water. Adjustment of the pH was done by diluted solutions of HCl and NaOH Inhibition of growth was determined by measuring the absorbance at 600 nm with a Microplate autoreader E1309 (Bio-Tek Instruments), after an incubation time of 18-20 h at 37° C. Antibacterial activities were expressed as the minimal inhibitory concentration (MIC), the concentration at which 100% inhibition of growth was observed after 18-20 h of incubation. The bacteria used were: Escherichia coli ATCC 25922, Acinetobacter baumannii ATCC 19606, Pseudomonas aeruginosa ATCC 27853, Staphylococcus aureus ATCC 6538P, Enterococcus faecalis ATCC 29212, Enterobacter cloacae ATCC 49141. The antibacterial activity of lipopeptides was also examined against resistant bacteria: methicilin-resistant Staphylococcus aureus (MRSA) ATCC 700698 and vancomycin-resistant Enterococcus faecium (VRE) ATCC 700221. If not indicated otherwise, the bacterial growth was detected at pH 7.4.

[2] = tested on: Pseudomonas aeruginosa ATCC 27853
Method: as §1

[3] = tested on: Acinetobacter baumannii ATCC 19606; conditions: ATCC 19606, pH 7.4
Method: as §1

E. coli D21 = conditions: D21, pH 7.4
[4] = tested on: Aspergillus fumigatus ATCC 26430; experiment: microbe, parasite or virus in culture; conditions: for MIC / Minimal Inhibitory Concentration, A. fumigatus ATCC 26430: ATCC 26430, pH 7.4; for MIC: read-out: Minimal Inhibitory Concentration, Aspergillus Fomigatus (ATCC 26430)
[5] = tested on: Cryptococcus neoformans ATCC MYA-422; experiment: microbe, parasite or virus in culture; conditions: read-out: Minimal Inhibitory Concentration, Cyrptococcus neoformans (ATCC MYA-422)
[6] = tested on: Candida albicans ATCC 10231; experiment: microbe, parasite or virus in culture; conditions: for MIC: read-out: Minimal Inhibitory Concentration, Candida Albicans (ATCC 10231)
Method: (§2) The antifungal activity of the lipopeptides was examined in sterile 96-well plates (Nunc F96 microtiter plates) in a final volume of 200 μL as follows: 100 µl of a suspension containing fungi at a concentration of 1×10^4 Colony-Forming Units (CFU)/ml in culture medium (RPMI 1640, 0.165 M MOPS with L-glutamine, without NaHCO3) at pH 7.4 or pH 5.5 (adjustment of the pH was done by diluted solutions of HCl and NaOH) were added to 100 μl of water containing the peptide in serial 2-fold dilutions in water. The fungi were incubated in the presence of the lipopeptides for 24-48 h at 35° C. in a Binder KB115 incubator under agitation. Growth inhibition was determined by measuring the absorbance at 620 nm with a Microplate autoreader E1309 (Bio-Tek Instruments). Antifungal activity is expressed as the minimal inhibitory concentration (MIC), the concentration at which 100% inhibition of fungi growth was observed after the incubation time mentioned above. The fungi used were: Aspergillus niger ATCC 9642, Candida albicans ATCC 10231 and Cryptococcus neoformans ATCC 66031. If not indicated otherwise, the fungi growth was detected at pH 7.4.

[7] = tested on: Escherichia coli ATCC 25922; conditions: for Minimal Inhibitory Concentration, E. coli: ATCC 25922, pH 7.4
Method: as §1

B. subtilis ATCC 6051 = conditions: ATCC 6051
[8] = tested on: Enterococcus faecalis ATCC 29212; conditions: ATCC 29212, pH 7.4
Method: as §1

[9] = tested on: Enterobacter cloacae ATCC 49141; conditions: ATCC 49141, pH 7.4
Method: as §1

[10] = tested on: methicilin-resistant Staphylococcus aureus (MRSA) ATCC 700698; conditions: ATCC 700698, pH 7.4
Method: as §1

[11] = tested on: Cryptococcus neoformans ATCC 66031; experiment: microbe, parasite or virus in culture; conditions: ATCC 66031, pH 7.4
Method: as §2

CCCCCCCCCCCCCCCC(=O)N[C@@H](CCC(=O)O)C(=O)N[C@@H](CCCCN)C(=O)N[C@H](CCCCN)C(=O)N[C@@H](CCCCN)C(N)=O [PA-EKKK, Palmitoyl-Glu-Lys-D-Lys-Lys-NH2] (Palmitoyl-EK[dK]K-NH2)
Minimal Inhibitory Concentration, S. aureus ATCC 6538P ([1]; ATCC 6538, pH 7.4): 12.5 µM | Minimal Inhibitory Concentration, P. aeruginosa ATCC 27853 ([2]; ATCC 27853, pH 7.4): >100 µM | Minimal Inhibitory Concentration, A. baumannii ATCC 19606 [3]: >100 µM | Minimal Inhibitory Concentration, E. coli-D21 (E. coli D21): 25 µM | MIC [4]: 12.5 µM (≈ 9.61 µg/mL) | MIC ([5]; ATCC MYA-422, pH 7.4): 6.25 µM (≈ 4.81 µg/mL) | MIC ([6]; ATCC 10231, pH 7.4): 25 µM (≈ 19.2 µg/mL)

CCCCCCCCCCCCCCCC(=O)N[C@@H](CCCCN)C(=O)N[C@@H](C)C(=O)N[C@H](C)C(=O)N[C@@H](CCCCN)C(N)=O [PA-KAAK, Palmitoyl-Lys-Ala-D-Ala-Lys-NH2] (Palmitoyl-KA[dA]K-NH2)
Minimal Inhibitory Concentration, S. aureus ATCC 6538P ([1]; ATCC 6538, pH 7.4): 6.25 µM | Minimal Inhibitory Concentration, P. aeruginosa ATCC 27853 ([2]; ATCC 27853, pH 7.4): 100 µM | Minimal Inhibitory Concentration, A. baumannii ATCC 19606 [3]: 100 µM | Minimal Inhibitory Concentration, E. coli-D21 (E. coli D21): 6.25 µM | MIC [4]: 12.5 µM (≈ 8.17 µg/mL) | MIC ([5]; ATCC MYA-422, pH 7.4): 3.12 µM (≈ 2.04 µg/mL) | MIC ([6]; ATCC 10231, pH 7.4): 25 µM (≈ 16.3 µg/mL)

CCCCCCCCCCCCCCCC(=O)N[C@@H](CCCCN)C(=O)N[C@@H](CCC(=O)O)C(N)=O [PA-KE] (Palmitoyl-Lys-Glu-NH2)
Minimal Inhibitory Concentration, S. aureus ATCC 6538P ([1]; ATCC 6538, pH 7.4): >100 µM | Minimal Inhibitory Concentration, P. aeruginosa ATCC 27853 ([2]; ATCC 27853, pH 7.4): >100 µM | Minimal Inhibitory Concentration, A. baumannii ATCC 19606 [3]: >100 µM | Minimal Inhibitory Concentration, E. coli-D21 (E. coli D21): >100 µM | MIC [4]: >100 µM | MIC ([5]; ATCC MYA-422, pH 7.4): >100 µM | MIC ([6]; ATCC 10231, pH 7.4): >100 µM

CCCCCCCCCCCCCCCC(=O)N[C@@H](CCCCN)C(=O)N[C@H](CCCCN)C(=O)N[C@@H](CCC(=O)O)C(=O)N[C@@H](CCCCN)C(N)=O [PA-KKEK, Palmitoyl-Lys-D-Lys-Glu-Lys-NH2] (Palmitoyl-K[dK]EK-NH2)
Minimal Inhibitory Concentration, S. aureus ATCC 6538P ([1]; ATCC 6538, pH 7.4): 25 µM | Minimal Inhibitory Concentration, P. aeruginosa ATCC 27853 ([2]; ATCC 27853, pH 7.4): 100 µM | Minimal Inhibitory Concentration, A. baumannii ATCC 19606 [3]: 100 µM | Minimal Inhibitory Concentration, E. coli-D21 (E. coli D21): 25 µM | MIC [4]: 50 µM (≈ 38.5 µg/mL) | MIC ([5]; ATCC MYA-422, pH 7.4): 12.5 µM (≈ 9.61 µg/mL) | MIC ([6]; ATCC 10231, pH 7.4): 50 µM (≈ 38.5 µg/mL)

CCCCCCCCCCCCCCCC(=O)N[C@@H](CCCCN)C(N)=O [PA-K]
Minimal Inhibitory Concentration, S. aureus ATCC 6538P ([1]; ATCC 6538, pH 7.4): >100 µM | Minimal Inhibitory Concentration, P. aeruginosa ATCC 27853 ([2]; ATCC 27853, pH 7.4): >100 µM | Minimal Inhibitory Concentration, A. baumannii ATCC 19606 [3]: >100 µM | Minimal Inhibitory Concentration, E. coli-D21 (E. coli D21): >100 µM | MIC [4]: >100 µM | MIC ([5]; ATCC MYA-422, pH 7.4): 6.25 µM (≈ 2.4 µg/mL) | MIC ([6]; ATCC 10231, pH 7.4): >100 µM

CCCCCCCCCCCCCCCC(=O)N[C@@H](CCCNC(=N)N)C(=O)N[C@@H](CC(C)C)C(=O)N[C@H](CC(C)C)C(=O)N[C@@H](CCCNC(=N)N)C(N)=O [PA-RLLR, Palmitoyl-Arg-Leu-D-Leu-Arg-NH2] (Palmitoyl-RL[dL]R-NH2)
Minimal Inhibitory Concentration, S. aureus ATCC 6538P ([1]; ATCC 6538, pH 7.4): 25 µM | Minimal Inhibitory Concentration, P. aeruginosa ATCC 27853 ([2]; ATCC 27853, pH 7.4): >100 µM | Minimal Inhibitory Concentration, A. baumannii ATCC 19606 [3]: >100 µM | Minimal Inhibitory Concentration, E. coli-D21 (E. coli D21): >100 µM | MIC [4]: 6.25 µM (≈ 4.96 µg/mL) | MIC ([5]; ATCC MYA-422, pH 7.4): 1.56 µM (≈ 1.24 µg/mL) | MIC ([6]; ATCC 10231, pH 7.4): 25 µM (≈ 19.9 µg/mL)

CC[C@H](C)[C@H](NC(=O)CN)C(=O)NCC(=O)N[C@@H](CCCCN)C(=O)N[C@@H](Cc1ccccc1)C(=O)N[C@H](CC(C)C)C(=O)N[C@@H](Cc1c[nH]cn1)C(=O)N[C@@H](CO)C(=O)N[C@@H](C)C(=O)N[C@H](CCCCN)C(=O)N[C@@H](CCCCN)C(=O)N[C@@H](Cc1c[nH]c2ccccc12)C(=O)NCC(=O)N[C@@H](CCCCN)C(=O)N[C@@H](C)C(=O)N[C@H](Cc1ccccc1)C(=O)N[C@H](C(=O)NCC(=O)N[C@H](CCC(=O)O)C(=O)N[C@H](C(=O)N[C@@H](CCSC)C(=O)N[C@@H](CC(N)=O)C(=O)N[C@@H](CO)C(N)=O)[C@@H](C)CC)C(C)C [[D]4magainin, Gly-Ile-Gly-Lys-Phe-D-Leu-His-Ser-Ala-D-Lys-Lys-Trp-Gly-Lys-Ala-D-Phe-Val-Gly-D-Glu-Ile-Met-Asn-Ser-NH2, reference compound] (H-GIGKF[dL]HSA[dK]KWGKA[dF]VG[dE]IMNS-NH2; N-terminus assumed)
Minimal Inhibitory Concentration, S. aureus ATCC 6538P ([1]; ATCC 6538): >50 µM | Minimal Inhibitory Concentration, P. aeruginosa ATCC 27853 ([2]; ATCC 27853): >50 µM | Minimal Inhibitory Concentration, E. coli (ATCC 25922) ([7]; ATCC 25922): >50 µM | Minimal Inhibitory Concentration, Aspergillus fumigatus (ATCC 26430) ([4]; ATCC 26430): >50 µM | Minimal Inhibitory Concentration, B. subtilis (ATCC 6051) (B. subtilis ATCC 6051): 50 µM | MIC ([5]; Table 17, D-magainin analog, mean of 3 experiments, standard deviation of 25%): >50 µM | MIC ([6]; ATCC 10231): >50 µM

CCCCCCCCCCCCCC(=O)N[C@H](CCCCN)C(=O)NCC(=O)NCC(=O)NCC(=O)N[C@H](CCCCN)C(=O)NCC(=O)NCC(=O)NCC(=O)N[C@H](CCCCN)C(=O)NCC(=O)NCC(=O)N[C@H](CCCCN)C(N)=O [lipopeptide 1, (CH3—(CH2)12—CO—)-D-Lys-Gly-Gly-Gly-D-Lys-Gly-Gly-Gly-D-Lys-Gly-Gly-D-Lys-NH2] (Myristoyl-[dK]GGG[dK]GGG[dK]GG[dK]-NH2)
Minimal Inhibitory Concentration, E. faecalis [8]: 3.125 µM | Minimal Inhibitory Concentration, E. cloacae [9]: 3.125 µM | Minimal Inhibitory Concentration, S. aureus ([1]; ATCC 6538, pH 7.4): 6.25 µM | Minimal Inhibitory Concentration, P. Aeruginosa ([2]; ATCC 27853, pH 7.4): 6.25 µM | Minimal Inhibitory Concentration, S. aureus (MRSA) [10]: 6.25 µM | Minimal Inhibitory Concentration, E. coli [7]: 12.5 µM | Minimal Inhibitory Concentration, A. fumigatus ATCC 26430 [4]: 6.25 µM | Minimal Inhibitory Concentration, C. albicans ATCC 10231 ([6]; ATCC 10231, pH 7.4): 3.125 µM | Minimal Inhibitory Concentration, C. neoformans ATCC 66031 [11]: 6.25 µM

CCCCCCCCCCCCCCCC(=O)N[C@@H](CCCCN)C(=O)NCC(=O)NCC(=O)NCC(=O)N[C@@H](CCCCN)C(=O)NCC(=O)NCC(=O)NCC(=O)N[C@@H](CCCCN)C(=O)NCC(=O)NCC(=O)N[C@@H](CCCCN)C(N)=O [lipopeptide 4, (CH3—(CH2)14—CO—)-Lys-Gly-Gly-Gly-Lys-Gly-Gly-Gly-Lys-Gly-Gly-Lys-NH2] (Palmitoyl-KGGGKGGGKGGK-NH2)
Minimal Inhibitory Concentration, E. faecalis [8]: 12.5 µM | Minimal Inhibitory Concentration, E. cloacae [9]: 50 µM | Minimal Inhibitory Concentration, S. aureus ([1]; ATCC 6538, pH 7.4): 12.5 µM | Minimal Inhibitory Concentration, P. Aeruginosa ([2]; ATCC 27853, pH 7.4): 6.25 µM | Minimal Inhibitory Concentration, S. aureus (MRSA) [10]: 12.5 µM | Minimal Inhibitory Concentration, A. Baumaannii [3]: 25 µM | Minimal Inhibitory Concentration, E. coli [7]: 25 µM | Minimal Inhibitory Concentration, A. fumigatus ATCC 26430 [4]: 6.25 µM | Minimal Inhibitory Concentration, C. albicans ATCC 10231 ([6]; ATCC 10231, pH 7.4): 3.125 µM | Minimal Inhibitory Concentration, C. neoformans ATCC 66031 [11]: 1.56 µM
